Laboratory results: ChEMBL document CHEMBL5096185, “Structure-Guided Development of Small-Molecule PRC2 Inhibitors Targeting EZH2-EED Interaction” (J Med Chem, 2021)
Activity calls are given as the source filed them. The calls are words filed in the database; no cut-off is given here.

What was measured:
[1] = Inhibition of FITC-labeled EZH2 (40 to 63 residues) (unknown origin)-recombinant N-terminal 6His-SUMO tagged human EED (81 to 441 residues) expressed in Escherichia coli BL21 (DE3) cells protein-protein interaction incubated for 2 hrs by fluorescence polarization competition assay
Pfeiffer [2] = test: Antiproliferative activity against human Pfeiffer cells assessed as inhibition of cell growth incubated for 72 hrs by CellTiter-Glo assay; type: functional, cell-based
Pfeiffer [3] = test: Inhibition of PRC2 in human Pfeiffer cells assessed as reduction in EZH2 protein level measured after 72 hrs by Western blot analysis; type: cell-based; details: dose 0.6-10 µM, DDE = dose-dependent effect
Pfeiffer [4] = test: Inhibition of PRC2 in human Pfeiffer cells assessed as reduction in SUZ12 protein level measured after 72 hrs by Western blot analysis; type: cell-based; details: dose 0.6-10 µM, DDE = dose-dependent effect
Polycomb protein EED [5] = target: T1, Polycomb protein EED (Homo sapiens, UniProt O75530); test: Binding affinity to recombinant N-terminal 6His-SUMO tagged human EED (81 to 441 residues) expressed in Escherichia coli BL21 (DE3) cells assessed as dissociation constant measured after 240 sec by SPR-based binding assay
Target sequence in this assay (O75530 whole entry, the tested form may be a part): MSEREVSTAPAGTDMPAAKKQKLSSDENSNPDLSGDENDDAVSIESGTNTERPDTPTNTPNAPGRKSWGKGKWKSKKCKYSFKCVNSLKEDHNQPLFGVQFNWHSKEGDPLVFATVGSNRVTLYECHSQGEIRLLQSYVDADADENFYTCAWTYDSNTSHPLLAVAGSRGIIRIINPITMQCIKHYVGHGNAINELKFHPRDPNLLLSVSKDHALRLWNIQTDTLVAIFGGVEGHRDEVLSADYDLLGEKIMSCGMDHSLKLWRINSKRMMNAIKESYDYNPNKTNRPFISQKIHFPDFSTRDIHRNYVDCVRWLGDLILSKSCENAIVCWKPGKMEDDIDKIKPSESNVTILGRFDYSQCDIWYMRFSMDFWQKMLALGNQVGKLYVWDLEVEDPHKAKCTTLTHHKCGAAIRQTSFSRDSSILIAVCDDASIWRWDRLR

Polycomb protein EED [6] = target: T1, Polycomb protein EED; test: Binding affinity to recombinant N-terminal 6His-SUMO tagged human EED (81 to 441 residues) expressed in Escherichia coli BL21 (DE3) cells assessed as binding constant (Kon) measured after 120 sec by SPR-based binding assay
Target sequence in this assay (O75530 2-441 limits assumed): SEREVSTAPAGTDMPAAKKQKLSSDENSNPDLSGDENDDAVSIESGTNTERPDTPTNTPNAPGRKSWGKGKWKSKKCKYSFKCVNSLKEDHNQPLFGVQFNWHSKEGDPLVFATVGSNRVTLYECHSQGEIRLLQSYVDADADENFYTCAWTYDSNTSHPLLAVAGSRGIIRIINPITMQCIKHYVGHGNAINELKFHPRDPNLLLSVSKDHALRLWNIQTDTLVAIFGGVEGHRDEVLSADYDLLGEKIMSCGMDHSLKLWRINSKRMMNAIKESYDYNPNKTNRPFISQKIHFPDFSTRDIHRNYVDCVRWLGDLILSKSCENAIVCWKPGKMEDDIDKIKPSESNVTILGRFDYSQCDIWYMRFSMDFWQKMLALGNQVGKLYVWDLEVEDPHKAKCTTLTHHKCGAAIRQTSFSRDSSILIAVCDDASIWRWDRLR

Homo sapiens = species: Homo sapiens; test: Binding affinity to EZH2 (39 to 68 residues) (unknown origin)/recombinant N-terminal 6His-SUMO tagged human EED (81 to 441 residues) expressed in Escherichia coli BL21 (DE3) cells assessed as T1rho signal recovery at 50 to 100 uM by NMR-based binding assay; details: dose 50-100 µM
SUD4 [7] = test: Induction of cell cycle arrest in human SU-DHL-4 cells assessed as decrease of cells in G2/M phase at 5 uM incubated for 3 days by PI/RNase staining based analysis (reference value: 8.6 %); type: functional; set-up: scale not given: the % may be the effect or the level left; details: time 3 day
Pfeiffer [8] = test: Inhibition of PRC2 in human Pfeiffer cells assessed as reduction in EED protein level measured after 72 hrs by Western blot analysis; type: cell-based; details: dose 0.6-10 µM, DDE = dose-dependent effect
Pfeiffer [9] = test: Induction of cell cycle arrest in human Pfeiffer cells assessed as decrease of cells in S phase at 5 uM incubated for 2 days by PI/RNase staining based analysis (reference value: 32.8 %); type: functional; set-up: scale not given: the % may be the effect or the level left; details: time 2 day
Pfeiffer [10] = test: Induction of cell cycle arrest in human Pfeiffer cells assessed as accumulation of cells in G0/G1 phase at 5 uM incubated for 2 days by PI/RNase staining based analysis (reference value: 52.3%); type: functional; details: time 2 day
SUD4 [11] = test: Antiproliferative activity against human SU-DHL-4 cells assessed as inhibition of cell growth incubated for 72 hrs by CellTiter-Glo assay; type: functional, cell-based; details: SU-DHL-4, 72 h
SUD4 [12] = test: Induction of cell cycle arrest in human SU-DHL-4 cells assessed as accumulation of cells in G0/G1 phase at 5 uM incubated for 3 days by PI/RNase staining based analysis (reference value: 62.2 %); type: functional; details: time 3 day
DB = test: Antiproliferative activity against human DB cells assessed as inhibition of cell growth incubated for 72 hrs by CellTiter-Glo assay; type: functional, cell-based
Polycomb protein EED [13] = target: T1, Polycomb protein EED; test: Binding affinity to recombinant N-terminal 6His-SUMO tagged human EED (81 to 441 residues) expressed in Escherichia coli BL21 (DE3) cells assessed as binding constant (Koff) measured after 120 sec by SPR-based binding assay
Target sequence in this assay (O75530 2-441 limits assumed): as above

SUD4 [14] = test: Induction of cell cycle arrest in human SU-DHL-4 cells assessed as decrease of cells in G2/M phase at 5 uM incubated for 3 days by PI/RNase staining based analysis (reference value: 29.2 %); type: functional; set-up: scale not given: the % may be the effect or the level left; details: time 3 day
Pfeiffer [15] = test: Inhibition of PRC2 in human Pfeiffer cells assessed as reduction in H3K27me3 level measured after 72 hrs by Western blot analysis; type: cell-based; details: dose 0.6-10 µM, DDE = dose-dependent effect
Pfeiffer [16] = test: Induction of cell cycle arrest in human Pfeiffer cells assessed as decrease of cells in G2/M phase at 5 uM incubated for 2 days by PI/RNase staining based analysis (reference value: 14.9 %); type: functional; set-up: scale not given: the % may be the effect or the level left; details: time 2 day
KARPAS-422 = test: Antiproliferative activity against human KARPAS-422 cells assessed as inhibition of cell growth incubated for 72 hrs by CellTiter-Glo assay; type: functional, cell-based; details: KARPAS-422, 72 h

Structure (SMILES): COc1ccc(CCN2CCC(Nc3nc4ccccc4n3Cc3ccc(F)c([N+](=O)[O-])c3)CC2)cc1
- IC50 [1]: 61.6 µM

Structure (SMILES): COc1ccc(CCN2CCC(Nc3nc4ccccc4n3Cc3ccc(C(F)(F)F)cc3)CC2)cc1
- IC50 [1]: 60.8 µM

Structure (SMILES): COc1ccc(CNc2ccc(Nc3nc4ccccc4n3Cc3ccc(F)cc3)cc2)cc1
- IC50 [1]: 33.8 µM

Structure (SMILES): COc1ccc(CCN2CCC(Nc3nc4ccc(N)cc4n3Cc3ccc(F)cc3)CC2)cc1
- IC50 [1]: 64.7 µM

Structure (SMILES): COc1ccc(CCN2CCC(Nc3nc4c(N)cccc4n3Cc3ccc(F)cc3)CC2)cc1
- IC50 [1]: 48.6 µM

Structure (SMILES): COc1ccc(CCN2CC(Nc3nc4ccccc4n3Cc3ccc(F)cc3)C2)cc1
- IC50 [1]: 21.5 µM

Structure (SMILES): COc1ccc(CCN2CCC(Nc3nc4ccccc4n3Cc3ccccc3)CC2)cc1
- IC50 [1]: 131 µM

Structure (SMILES): COc1ccc(CCNCCCNc2nc3ccccc3n2Cc2ccc(F)cc2)cc1
- IC50 [1]: 464 µM

Structure (SMILES): COc1ccc(CCN2CCC(Nc3nc4cccc(N)c4n3Cc3ccc(F)cc3)CC2)cc1
- IC50 [1]: 73.8 µM

Structure (SMILES): COc1ccc(CCN2CCC(Nc3nc4cc(N)ccc4n3Cc3ccc(F)cc3)CC2)cc1
- IC50 [1]: 63.6 µM

Structure (SMILES): Oc1cccc(CCN2CCC(Nc3nc4ccccc4n3Cc3ccc(F)cc3)CC2)c1
- IC50 [1]: 61.5 µM

Structure (SMILES): COc1ccc(CCN2CCC(Nc3nc4ccccc4n3Cc3ccc(F)cc3[N+](=O)[O-])CC2)cc1
- IC50 [1]: 80.1 µM

Structure (SMILES): O=[N+]([O-])c1cccc(CCN2CCC(Nc3nc4ccccc4n3Cc3ccc(F)cc3)CC2)c1
- IC50 [1]: 341 µM

Structure (SMILES): COc1ccc(CCN2CCC(Nc3nc4ccccc4n3Cc3ccc([N+](=O)[O-])cc3)CC2)cc1
- IC50 [1]: 66.3 µM

Structure (SMILES): COc1ccc(CCN2CCC(Nc3nc4ccccc4n3Cc3ccc(F)cc3)C2)cc1 (centres undefined)
- IC50 (Pfeiffer [2]): 3.77 µM
- inhibition (Pfeiffer [3]): Dde
- inhibition (Pfeiffer [4]): Dde
- Kd (Polycomb protein EED [5]): 4.56 µM
- K (Polycomb protein EED [6]): 4500 M⁻¹ s⁻¹
- Activity (Homo sapiens): Active
- Activity (SUD4 [7]): 0%
- inhibition (Pfeiffer [8]): Dde
- Activity (Pfeiffer [9]): 17.6%
- Activity (Pfeiffer [10]): 76.2%
- IC50 (SUD4 [11]): 5.87 µM
- Activity (SUD4 [12]): 84%
- IC50 (DB): 9.62 µM
- K (Polycomb protein EED [13]): 0.0205 s⁻¹
- Activity (SUD4 [14]): 16%
- inhibition (Pfeiffer [15]): Dde
- Activity (Pfeiffer [16]): 6.2%
- IC50 (KARPAS-422): 5.97 µM

Structure (SMILES): COc1ccc(CCN2CC[C@H](Nc3nc4ccccc4n3Cc3ccc(F)cc3)C2)cc1
- IC50 [1]: 4.56 µM

Structure (SMILES): COc1ccc(CCN2CCC(Nc3nc4ccccc4n3Cc3ccc(F)c(F)c3)CC2)cc1
- IC50 [1]: 56.5 µM

Structure (SMILES): COc1ccc(CN[C@H]2CC[C@H](Nc3nc4ccccc4n3Cc3ccc(F)cc3)CC2)cc1
- IC50 [1]: 78.7 µM

Structure (SMILES): Oc1ccc(CCN2CCC(Nc3nc4ccccc4n3Cc3ccc(F)cc3)CC2)cc1 [DESMETHEYLASTEMIZOLE]
- IC50 [1]: 190 µM

Structure (SMILES): Oc1ccccc1CCN1CCC(Nc2nc3ccccc3n2Cc2ccc(F)cc2)CC1
- IC50 [1]: 175 µM

Structure (SMILES): COc1ccc(CNc2ccc(Nc3nc4ccccc4n3Cc3ccc(F)cc3)cn2)cc1
- IC50 [1]: 32.5 µM

Structure (SMILES): Cc1ccc(CCN2CCC(Nc3nc4ccccc4n3Cc3ccc(F)cc3)CC2)cc1
- IC50 [1]: 87.6 µM

Structure (SMILES): COc1ccc(CCNCCNc2nc3ccccc3n2Cc2ccc(F)cc2)cc1
- IC50 [1]: 11.6 µM

Structure (SMILES): COc1ccc(CN[C@H]2CC[C@@H](Nc3nc4ccccc4n3Cc3ccc(F)cc3)CC2)cc1
- IC50 [1]: > 500 µM

Structure (SMILES): COc1ccc(CCN2CCC(Nc3nc4ccccc4n3Cc3ccc(C)cc3)CC2)cc1
- IC50 [1]: 153 µM

Structure (SMILES): COc1ccc(CCN2CCC(Nc3nc4ccccc4n3Cc3ccc(N)cc3)CC2)cc1
- IC50 [1]: 221 µM

Structure (SMILES): COc1ccc(CCN2CCC(Nc3nc4ccccc4n3Cc3ccc(F)cc3)CC2)cc1 [ASTEMIZOLE]
- IC50 [1]: 74.2 µM
